# Measured values taken from patent US10040788B2, “1,3,4-thiadiazole compounds and their use in treating cancer” (AstraZeneca AB, priority 2014, dated 2018).
# System: NCI-H1703 cells
# Test: GLS Cell Proliferation Assay (NCI-H1703)
# Assay type: cell-based, human
# Settings: Homo sapiens, 120 h; NCI-H1703 cells, 5 days incubation; geometric mean where repeated; read-out: Assay c) GLS Cell Proliferation Assay
# Description: The following assays were used to measure the effects of the compounds of the present invention: a) GLS Enzyme Potency Assay; b) GLS Cell Potency Assay; c) GLS Cell Proliferation Assay; and d) Mouse Xenograft Model. During the description of the assays, generally: • i. The following abbreviations have been used: CO2=Carbon dioxide; DMEM=Dulbecco's Modified Eagle Medium; DMSO=Dimethyl sulphoxide; EDTA=Ethylenediaminetetraacetic acid; EGTA=Ethylene glycol tetraacetic acid; FCS=Foetal calf serum; h=Hour(s); NBS=Non-binding surface; SDS=Sodium dodecyl sulphate; r.t.=room temperature; TRIS=Tris(Hydroxymethyl)aminomethane. • ii. […]
# The ability of compounds to inhibit cell growth was measured using a 384 well plate NCI-H1703 cell proliferation assay. NCI-H1703 cells were grown in phenol red free RPMI1640, 10% FCS and 2 mM glutamine and seeded at a density of 750 cells per well in 40 μl of growth medium into clear-bottom 384 well assay plates (Corning product code 3712) and incubated for 24 h at 37° C., 5% CO2. […] DMSO concentration was maintained at 0.3% by back filling with DMSO solution. Plates were incubated for 5 days at 37° C., 5% CO2, Sytox Green and Saponin added to final concentration of 2 μM and 0.25% respectively and incubated for 6 h prior to analysis. Plates were read on an Acumen eX3 (TTP Labtech) using 488 nm excitation and FITC filter set (500-530 nm) for emission. IC50 values were calculated by curve fitting to max inhibition of day zero growth using GeneData software analysis.
row,IC50 [nM],SMILES
1,9.28,"CCO[C@H](C(=O)Nc1nnc(N[C@@H]2CCN(c3cccnn3)C2)s1)c1ccc(OC)cc1 [28(a), (2S)-2-ethoxy-2-(4-methoxyphenyl)-N-[5-[[(3R)-1-pyridazin-3-ylpyrrolidin-3-yl]amino]-1,3,4-thiadiazol-2-yl]acetamide]"
2,6.38,"CCO[C@@H](C(=O)Nc1nnc(N[C@@H]2CCN(c3cccnn3)C2)s1)c1cccc(OC(F)(F)F)c1 [Example 16(b), (2R)-2-Ethoxy-N-[5-[[(3R)-1-pyridazin-3-ylpyrrolidin-3-yl]amino]-1,3,4-thiadiazol-2-yl]-2-[3-(trifluoromethoxy)phenyl]acetamide]"
3,4.63,"CO[C@H](C(=O)Nc1nnc(N[C@@H]2CCN(c3cncnn3)C2)s1)c1cccc(OC(F)F)c1 [23(a), (2S)-2-[3-(difluoromethoxy)phenyl]-2-methoxy-N-[5-[[(3R)-1-(1,2,4-triazin-6-yl)pyrrolidin-3-yl]amino]-1,3,4-thiadiazol-2-yl]acetamide]"
4,10.7,"CO[C@H](C(=O)Nc1nnc(N[C@@H]2CCN(c3cncnn3)C2)s1)c1cccc(OC(F)(F)F)c1 [22(a), (2S)-2-methoxy-N-[5-[[(3R)-1-(1,2,4-triazin-6-yl)pyrrolidin-3-yl]amino]-1,3,4-thiadiazol-2-yl]-2-[3-(trifluoromethoxy)phenyl]acetamide]"
5,71.6,"CCO[C@H](C(=O)Nc1nnc(N[C@@H]2CCN(c3cccnn3)C2)s1)c1cccc(OC)c1 [30(a), (2S)-2-ethoxy-2-(3-methoxyphenyl)-N-[5-[[(3R)-1-pyridazin-3-ylpyrrolidin-3-yl]amino]-1,3,4-thiadiazol-2-yl]acetamide]"
6,0.921,"CCO[C@H](C(=O)Nc1nnc(N[C@@H]2CCN(c3cccnn3)C2)s1)c1cccc(OC(F)F)c1 [Example 15(a), (2S)-2-[3-(Difluoromethoxy)phenyl]-2-ethoxy-N-[5-[[(3R)-1-pyridazin-3-ylpyrrolidin-3-yl]amino]-1,3,4-thiadiazol-2-yl]acetamide]"
7,2050,"COc1ccc([C@H](OC)C(=O)Nc2nnc(N[C@@H]3CCN(c4nccnn4)C3)s2)cc1OC [26(a), (2S)-2-(3,4-dimethoxyphenyl)-2-methoxy-N-[5-[[(3R)-1-(1,2,4-triazin-3-yl)pyrrolidin-3-yl]amino]-1,3,4-thiadiazol-2-yl]acetamide]"
8,6.94,"CO[C@@H](C(=O)Nc1nnc(N[C@@H]2CCN(c3cccnn3)C2)s1)c1cccc(OC(F)F)c1 [Example 7(b), (2R)-2-[3-(Difluoromethoxy)phenyl]-2-methoxy-N-[5-[[(3R)-1-pyridazin-3-ylpyrrolidin-3-yl]amino]-1,3,4-thiadiazol-2-yl]acetamide]"
9,36.8,"CO[C@@H](C(=O)Nc1nnc(N[C@@H]2CCN(c3nccnn3)C2)s1)c1cccc(OC(F)(F)F)c1 [Example 8(b), (2R)-2-Methoxy-N-[5-[[(3R)-1-(1,2,4-triazin-3-yl)pyrrolidin-3-yl]amino]-1,3,4-thiadiazol-2-yl]-2-[3-(trifluoromethoxy)phenyl]acetamide]"
10,2240,"CO[C@@H](C(=O)Nc1nnc(N[C@@H]2CCN(c3nccnn3)C2)s1)c1ccccc1 [Example 1(b), (2R)-2-Methoxy-2-phenyl-N-[5-[[(3R)-1-(1,2,4-triazin-3-yl)pyrrolidin-3-yl]amino]-1,3,4-thiadiazol-2-yl]acetamide]"
11,120,"CO[C@@H](C(=O)Nc1nnc(N[C@@H]2CCN(c3nccnn3)C2)s1)c1ccc(F)cc1 [17(b), (2R)-2-(4-fluorophenyl)-2-methoxy-N-[5-[[(3R)-1-(1,2,4-triazin-3-yl)pyrrolidin-3-yl]amino]-1,3,4-thiadiazol-2-yl]acetamide]"
12,1.32,"CCO[C@H](C(=O)Nc1nnc(N[C@@H]2CCN(c3cccnn3)C2)s1)c1cccc(OC(F)(F)F)c1 [Example 16(a), (2S)-2-Ethoxy-N-[5-[[(3R)-1-pyridazin-3-ylpyrrolidin-3-yl]amino]-1,3,4-thiadiazol-2-yl]-2-[3-(trifluoromethoxy)phenyl]acetamide]"
13,179,"CO[C@@H](C(=O)Nc1nnc(N[C@@H]2CCN(c3cccnn3)C2)s1)c1ccccc1 [Example 2(b), (2R)-2-Methoxy-2-phenyl-N-[5-[[(3R)-1-pyridazin-3-ylpyrrolidin-3-yl]amino]-1,3,4-thiadiazol-2-yl]acetamide]"
14,101,"COc1ccc([C@@H](OC)C(=O)Nc2nnc(N[C@@H]3CCN(c4nccnn4)C3)s2)cc1OC [26(b), (2R)-2-(3,4-dimethoxyphenyl)-2-methoxy-N-[5-[[(3R)-1-(1,2,4-triazin-3-yl)pyrrolidin-3-yl]amino]-1,3,4-thiadiazol-2-yl]acetamide]"
15,53.5,"CO[C@H](C(=O)Nc1nnc(N[C@@H]2CCN(c3nccnn3)C2)s1)c1ccccc1 [Example 1(a), (2S)-2-Methoxy-2-phenyl-N-[5-[[(3R)-1-(1,2,4-triazin-3-yl)pyrrolidin-3-yl]amino]-1,3,4-thiadiazol-2-yl]acetamide]"
16,151,"CCO[C@@H](C(=O)Nc1nnc(N[C@@H]2CCN(c3cccnn3)C2)s1)c1ccc(OC)cc1 [28(b), (2R)-2-ethoxy-2-(4-methoxyphenyl)-N-[5-[[(3R)-1-pyridazin-3-ylpyrrolidin-3-yl]amino]-1,3,4-thiadiazol-2-yl]acetamide]"
17,2.47,"CCO[C@@H](C(=O)Nc1nnc(N[C@@H]2CCN(c3cccnn3)C2)s1)c1cccc(OC(F)F)c1 [Example 15(b), (2R)-2-[3-(Difluoromethoxy)phenyl]-2-ethoxy-N-[5-[[(3R)-1-pyridazin-3-ylpyrrolidin-3-yl]amino]-1,3,4-thiadiazol-2-yl]acetamide]"
18,1.88,"[2H]C([2H])([2H])O[C@H](C(=O)Nc1nnc(N[C@@H]2CCN(c3cccnn3)C2)s1)c1ccccc1 [18(a), (2S)-2-phenyl-N-[5-[[(3R)-1-pyridazin-3-ylpyrrolidin-3-yl]amino]-1,3,4-thiadiazol-2-yl]-2-(trideuteriomethoxy)acetamide]"
19,1.94,"[2H]C([2H])([2H])O[C@]([2H])(C(=O)Nc1nnc(N[C@@H]2CCN(c3cccnn3)C2)s1)c1ccccc1 [20(a), (2S)-2-deuterio-2-phenyl-N-[5-[[(3R)-1-pyridazin-3-ylpyrrolidin-3-yl]amino]-1,3,4-thiadiazol-2-yl]-2-(trideuteriomethoxy)acetamide]"
20,166,"[2H]C([2H])([2H])O[C@@]([2H])(C(=O)Nc1nnc(N[C@@H]2CCN(c3cccnn3)C2)s1)c1ccccc1 [20(b), (2R)-2-deuterio-2-phenyl-N-[5-[[(3R)-1-pyridazin-3-ylpyrrolidin-3-yl]amino]-1,3,4-thiadiazol-2-yl]-2-(trideuteriomethoxy)acetamide]"
21,2.01,"CCO[C@@H](C(=O)Nc1nnc(N[C@@H]2CCN(c3cccnn3)C2)s1)c1cccc(OC)c1 [30(b), (2R)-2-ethoxy-2-(3-methoxyphenyl)-N-[5-[[(3R)-1-pyridazin-3-ylpyrrolidin-3-yl]amino]-1,3,4-thiadiazol-2-yl]acetamide]"
22,429,"CO[C@@H](C(=O)Nc1nnc(N[C@@H]2CCN(c3cccnn3)C2)s1)c1ccc(F)cc1 [Example 12(b), (2R)-2-(4-Fluorophenyl)-2-methoxy-N-[5-[[(3R)-1-pyridazin-3-ylpyrrolidin-3-yl]amino]-1,3,4-thiadiazol-2-yl]acetamide]"
